The text below walks through data of BindingDB's records for doi:10.1016/j.ejmech.2019.01.082 (Fudan University, 2019).

This assay can be described thus: Inverse agonist activity at RORgammat in mouse CD4 positive T cells assessed as inhibition of Th17 cell differentiation by measuring IL-17 release after 4 days by cellular staining based flow cytometry.
For `N#Cc1cccc(C(=O)Nc2cccc3c2CCC3N2CCN(C(=O)C3CCCC3)CC2)c1` (centres undefined), the IC50 stood at 1780 nM.

On to `N#Cc1cccc(C(=O)Nc2ccc3c(c2)C(N2CCN(C(=O)C4CCCC4)CC2)CC3)c1` (centres undefined), for which the IC50 stood at 2660 nM. The same measure for `N#Cc1cccc(C(=O)Nc2ccc3c(c2)C(N2CC4CCC(C2)N4C(=O)C2CCCC2)CC3)c1` (centres undefined): 423 nM; for `N#Cc1cccc(C(=O)Nc2cccc3c2CCC3N2CC3CCC(C2)N3C(=O)C2CCCC2)c1` (centres undefined): 385 nM.
